Experimental data taken from PMC9516332 (Frontiers in Oncology, 2022).
Read-outs that look alike come from different tables or passages of the source.

What was measured:
Assay in all cases: Kinase panel profiling at 1 µmol/L (MSA or IMAP), percentage inhibition
Format in all cases: biochemical
[1] = molecular target: panel of 255 wild-type kinases (Homo sapiens, UniProt O75582); settings: read-out: %-inhibition, MSK1
[2] = molecular target: T1, panel of 255 wild-type kinases (Homo sapiens, UniProt O94806); settings: read-out: %-inhibition at 1 µmol/L, PKD3
T1 sequence (O94806 1-890): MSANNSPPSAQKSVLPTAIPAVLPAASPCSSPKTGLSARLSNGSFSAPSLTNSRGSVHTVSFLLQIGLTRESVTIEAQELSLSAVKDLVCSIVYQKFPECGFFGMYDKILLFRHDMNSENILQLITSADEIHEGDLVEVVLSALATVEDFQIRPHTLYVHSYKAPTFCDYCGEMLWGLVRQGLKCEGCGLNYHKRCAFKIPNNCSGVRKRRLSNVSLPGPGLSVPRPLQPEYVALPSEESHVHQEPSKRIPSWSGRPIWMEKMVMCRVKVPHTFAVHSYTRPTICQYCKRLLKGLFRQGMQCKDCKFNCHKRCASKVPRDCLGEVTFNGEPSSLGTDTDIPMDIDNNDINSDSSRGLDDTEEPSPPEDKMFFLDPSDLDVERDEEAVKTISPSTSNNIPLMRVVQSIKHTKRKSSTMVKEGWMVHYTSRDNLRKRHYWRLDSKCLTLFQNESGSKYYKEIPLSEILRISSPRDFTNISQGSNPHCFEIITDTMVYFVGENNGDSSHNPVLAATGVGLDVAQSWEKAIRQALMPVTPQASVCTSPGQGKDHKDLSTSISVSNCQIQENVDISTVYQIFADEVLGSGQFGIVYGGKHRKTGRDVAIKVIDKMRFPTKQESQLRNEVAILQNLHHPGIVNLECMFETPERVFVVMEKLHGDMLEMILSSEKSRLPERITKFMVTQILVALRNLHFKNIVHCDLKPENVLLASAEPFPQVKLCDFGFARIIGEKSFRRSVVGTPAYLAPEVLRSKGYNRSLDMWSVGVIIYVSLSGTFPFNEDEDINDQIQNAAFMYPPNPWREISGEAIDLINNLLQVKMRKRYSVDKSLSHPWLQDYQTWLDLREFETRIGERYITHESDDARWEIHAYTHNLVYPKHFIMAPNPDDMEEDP

[3] = molecular target: panel of 255 wild-type kinases (Homo sapiens, UniProt P10721); settings: read-out: %-inhibition at 1 µmol/L, KIT
[4] = molecular target: panel of 255 wild-type kinases (Homo sapiens, UniProt P16234); settings: read-out: %-inhibition at 1 µmol/L, PDGFRα
[5] = molecular target: panel of 255 wild-type kinases (Homo sapiens, UniProt P45983); settings: read-out: %-inhibition at 1 µmol/L, JNK1
[6] = molecular target: panel of 255 wild-type kinases (Homo sapiens, UniProt P50750); settings: read-out: %-inhibition CDK9/CycT1
[7] = molecular target: panel of 255 wild-type kinases (Homo sapiens, UniProt Q05397); settings: read-out: %-inhibition at 1 µmol/L, FAK
[8] = molecular target: T2, panel of 255 wild-type kinases (Homo sapiens, UniProt Q06418); settings: read-out: %-inhibition at 1 µmol/L, TYRO3
T2 sequence (Q06418 41-890): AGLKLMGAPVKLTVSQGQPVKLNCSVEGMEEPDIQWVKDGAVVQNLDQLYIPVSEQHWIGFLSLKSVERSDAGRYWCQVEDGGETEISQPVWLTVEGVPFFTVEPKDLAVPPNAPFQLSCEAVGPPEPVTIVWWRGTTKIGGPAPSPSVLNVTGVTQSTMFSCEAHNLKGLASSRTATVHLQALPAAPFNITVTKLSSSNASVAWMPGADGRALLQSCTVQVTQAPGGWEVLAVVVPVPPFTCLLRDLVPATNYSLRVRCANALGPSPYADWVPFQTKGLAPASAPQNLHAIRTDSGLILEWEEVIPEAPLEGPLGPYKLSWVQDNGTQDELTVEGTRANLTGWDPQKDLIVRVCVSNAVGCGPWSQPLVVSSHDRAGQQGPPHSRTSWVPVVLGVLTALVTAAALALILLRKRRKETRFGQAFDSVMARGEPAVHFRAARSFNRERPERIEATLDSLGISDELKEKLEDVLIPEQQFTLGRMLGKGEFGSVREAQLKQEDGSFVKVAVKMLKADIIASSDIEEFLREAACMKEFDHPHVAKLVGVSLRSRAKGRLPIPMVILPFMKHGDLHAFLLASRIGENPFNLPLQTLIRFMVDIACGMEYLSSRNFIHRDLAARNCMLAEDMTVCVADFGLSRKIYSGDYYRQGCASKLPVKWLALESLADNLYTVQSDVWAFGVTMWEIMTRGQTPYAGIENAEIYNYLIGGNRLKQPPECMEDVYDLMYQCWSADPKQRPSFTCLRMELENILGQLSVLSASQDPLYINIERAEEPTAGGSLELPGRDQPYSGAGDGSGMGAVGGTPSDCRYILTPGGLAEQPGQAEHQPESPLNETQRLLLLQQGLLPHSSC

[9] = molecular target: panel of 255 wild-type kinases (Homo sapiens, UniProt Q15208); settings: read-out: %-inhibition, NDR1
[10] = molecular target: panel of 255 wild-type kinases (Homo sapiens, UniProt Q16288); settings: read-out: %-inhibition at 1 µmol/L, TRKC
[11] = molecular target: panel of 255 wild-type kinases (Homo sapiens, UniProt Q8IU85); settings: read-out: %-inhibition CaMK1δ
[12] = molecular target: panel of 255 wild-type kinases (Homo sapiens, UniProt Q96SB4); settings: read-out: %-inhibition at 1 µmol/L, SRPK1
[13] = molecular target: panel of 255 wild-type kinases (Homo sapiens, UniProt Q9UQM7); settings: read-out: %-inhibition CaMK2α
[14] = MSK1, 1 µmol/L single concentration
[15] = kinase PKD3, 1 µmol/L single concentration
[16] = kinase KIT, 1 µmol/L single concentration
[17] = kinase PDGFRα, 1 µmol/L single concentration
[18] = kinase JNK1, 1 µmol/L single concentration
[19] = CDK9/CycT1 kinase assay, 1 µmol/L single concentration
[20] = kinase FAK, 1 µmol/L single concentration
[21] = kinase TYRO3, 1 µmol/L single concentration
[22] = NDR1, 1 µmol/L single concentration
[23] = kinase TRKC, 1 µmol/L single concentration
[24] = CaMK1δ kinase assay, 1 µmol/L single concentration
[25] = kinase SRPK1, 1 µmol/L single concentration
[26] = CaMK2α kinase assay, 1 µmol/L single concentration

| SMILES | inhibition at 1 µM [1, 14] [%] | inhibition at 1 µM [2, 15] [%] | inhibition at 1 µM [3, 16] [%] | inhibition at 1 µM [4, 17] [%] | inhibition at 1 µM [5, 18] [%] | inhibition at 1 µM [6, 19] [%] | inhibition at 1 µM [7, 20] [%] | inhibition at 1 µM [8, 21] [%] | inhibition at 1 µM [9, 22] [%] | inhibition at 1 µM [10, 23] [%] | inhibition at 1 µM [11, 24] [%] | inhibition at 1 µM [12, 25] [%] | inhibition at 1 µM [13, 26] [%] | further results |
| --- | --- | --- | --- | --- | --- | --- | --- | --- | --- | --- | --- | --- | --- | --- |
| Cc1nc(NC(=O)N2CCC[C@H]2C(N)=O)sc1-c1ccnc(C(C)(C)C(F)(F)F)c1 [alpelisib] | -8 | -2.46 | 5 | 0.405 | -5 | -0.929 | 3.69 | 1.52 | 0.245 | 2.52 | 2 | 6 | -1.21 | – |
| Cn1cc(-c2cc3c(N4CCN(c5ncc([C@@](C)(N)c6ccc(F)cc6)cn5)CC4)ncnn3c2)cn1 [avapritinib] | 2.36 | 8 | 100 | – | -4.54 | 49 | -2.5 | 72 | -1.28 | 57 | -4.32 | -12 | -2.45 | – |
| Cn1cnc2c(F)c(Nc3ccc(Br)cc3F)c(C(=O)NOCCO)cc21 [binimetinib] | 10 | 0.731 | -0.242 | 2 | -2.59 | -1.47 | -1.33 | 5.28 | -1.86 | -0.843 | -8 | -3.37 | -4.55 | – |
| CNC(=O)c1ccc(-c2cnc3ncc(Cc4ccc5ncccc5c4)n3n2)cc1F [capmatinib] | – | – | – | – | – | – | – | – | – | – | – | – | – | inhibition at 1 µM [1]: 4%; inhibition at 1 µM [2]: -3.34%; inhibition at 1 µM [3]: 4%; inhibition at 1 µM [4]: 18%; inhibition at 1 µM [5]: -5.59%; inhibition at 1 µM [6]: -0.278%; inhibition at 1 µM [7]: -6%; inhibition at 1 µM [8]: 7%; inhibition at 1 µM [9]: -0.897%; inhibition at 1 µM [10]: 19%; inhibition at 1 µM [11]: -10%; inhibition at 1 µM [12]: -6%; inhibition at 1 µM [13]: -0.603% |
| COc1cc2ncnc(Nc3ccc(F)c(Cl)c3)c2cc1NC(=O)/C=C/CN1CCCCC1 [dacomitinib] | 1.13 | 8 | -10 | 69 | 1.07 | 3.6 | -0.575 | 27 | -0.0726 | -0.0882 | 1.43 | -9.5 | -1.13 | – |
| C[C@H](Nc1ncnc2nc[nH]c12)c1cc2cccc(Cl)c2c(=O)n1-c1ccccc1 [duvelisib] | -8 | -3.52 | -2.43 | 2 | 0.533 | -0.441 | 4 | 6 | 0.434 | 2 | 6 | 4 | 0.0129 | – |
| CN1CCN(c2ccc(C(=O)Nc3n[nH]c4ccc(Cc5cc(F)cc(F)c5)cc34)c(NC3CCOCC3)c2)CC1 [entrectinib] | 0.468 | 3 | 21 | 29 | -0.262 | 1.79 | – | 20 | 49 | 100 | 16 | 2.16 | 12 | – |
| CCN1CCN(c2ccc(Nc3cc(N(C)C(=O)Nc4c(Cl)c(OC)cc(OC)c4Cl)ncn3)cc2)CC1 [infigratinib] | 2.27 | 11 | – | 59 | -3.19 | -0.383 | -4.48 | 10 | 1.4 | 6 | 2.23 | -0.85 | -1.22 | – |
| C[C@H]1Oc2cc(cnc2N)-c2c(nn(C)c2C#N)CN(C)C(=O)c2ccc(F)cc21 [lorlatinib] | -8 | 1.46 | 4.22 | 1.74 | -0.746 | -2.48 | – | 9 | 3.5 | – | 7 | 5.65 | 3.76 | – |
| CCn1c(=O)c(-c2cc(NC(=O)Nc3ccccc3)c(F)cc2Br)cc2cnc(NC)cc21 [ripretinib] | 14 | 15 | – | – | 4 | 0.112 | 0.833 | 9.48 | 0.881 | 54 | 2.32 | -13 | -5.68 | – |
